In article PMC3639963, “A New Class of Small Molecule Inhibitor of BMP Signaling” (PLoS ONE, 2013):

Legend:
Test in all cases: Nanosyn kinase profiling
Format in all cases: biochemical
Conditions in all cases: read-out: Percentage inhibition; for inhibition at 0.1 µM: 0.1 µM inhibitor; for inhibition at 1 µM: 1 µM inhibitor
HIPK1 = biological target: T1, HIPK1 (Homo sapiens, UniProt Q86Z02)
T1 construct: purchased Nanosyn (enzymatic panel); SGC in-house recombinant human kinases (DSF panel); Invitrogen (ALK1-6)
T1 sequence (Q86Z02 whole entry): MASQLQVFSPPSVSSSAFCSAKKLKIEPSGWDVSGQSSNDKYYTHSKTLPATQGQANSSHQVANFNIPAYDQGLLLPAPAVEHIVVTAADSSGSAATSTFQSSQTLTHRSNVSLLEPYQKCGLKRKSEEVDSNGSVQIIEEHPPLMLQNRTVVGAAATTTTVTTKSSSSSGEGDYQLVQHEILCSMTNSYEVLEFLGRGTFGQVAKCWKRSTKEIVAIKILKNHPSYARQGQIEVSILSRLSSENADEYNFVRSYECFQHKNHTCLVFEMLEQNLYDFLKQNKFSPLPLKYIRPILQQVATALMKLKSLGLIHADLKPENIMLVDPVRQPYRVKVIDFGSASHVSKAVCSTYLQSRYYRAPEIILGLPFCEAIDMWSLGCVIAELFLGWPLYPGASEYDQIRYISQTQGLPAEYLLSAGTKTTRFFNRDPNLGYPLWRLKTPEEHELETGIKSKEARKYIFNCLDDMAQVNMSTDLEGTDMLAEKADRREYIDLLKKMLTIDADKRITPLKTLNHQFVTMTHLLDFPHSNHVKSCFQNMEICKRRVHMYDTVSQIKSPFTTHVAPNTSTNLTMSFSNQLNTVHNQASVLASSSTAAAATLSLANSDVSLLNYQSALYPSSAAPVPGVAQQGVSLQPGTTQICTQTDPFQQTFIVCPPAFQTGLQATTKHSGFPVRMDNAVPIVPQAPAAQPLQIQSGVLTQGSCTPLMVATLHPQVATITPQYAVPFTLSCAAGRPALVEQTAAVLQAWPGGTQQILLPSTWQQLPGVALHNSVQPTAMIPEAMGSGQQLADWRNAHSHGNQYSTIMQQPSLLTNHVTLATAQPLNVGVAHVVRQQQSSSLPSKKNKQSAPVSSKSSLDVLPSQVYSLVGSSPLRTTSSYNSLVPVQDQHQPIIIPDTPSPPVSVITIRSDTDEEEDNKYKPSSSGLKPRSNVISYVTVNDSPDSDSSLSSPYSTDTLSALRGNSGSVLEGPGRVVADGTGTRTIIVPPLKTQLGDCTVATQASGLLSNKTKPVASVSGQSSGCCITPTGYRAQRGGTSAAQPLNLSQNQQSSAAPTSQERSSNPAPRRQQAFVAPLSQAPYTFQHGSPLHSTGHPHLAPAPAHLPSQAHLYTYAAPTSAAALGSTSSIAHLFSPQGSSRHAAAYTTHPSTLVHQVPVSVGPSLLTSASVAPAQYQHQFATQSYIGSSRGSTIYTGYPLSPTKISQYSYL
In short: (§1)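 Percent inhibition of each kinase was measured with the inhibitor at 0.1 µM and at 1 µM, as part of a 200-kinase human selectivity panel.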

SGK3 = biological target: T2, SGK3 (Homo sapiens, UniProt Q96BR1)
T2 construct: purchased Nanosyn (enzymatic panel); SGC in-house recombinant human kinases (DSF panel); Invitrogen (ALK1-6)
T2 sequence (Q96BR1 1-496): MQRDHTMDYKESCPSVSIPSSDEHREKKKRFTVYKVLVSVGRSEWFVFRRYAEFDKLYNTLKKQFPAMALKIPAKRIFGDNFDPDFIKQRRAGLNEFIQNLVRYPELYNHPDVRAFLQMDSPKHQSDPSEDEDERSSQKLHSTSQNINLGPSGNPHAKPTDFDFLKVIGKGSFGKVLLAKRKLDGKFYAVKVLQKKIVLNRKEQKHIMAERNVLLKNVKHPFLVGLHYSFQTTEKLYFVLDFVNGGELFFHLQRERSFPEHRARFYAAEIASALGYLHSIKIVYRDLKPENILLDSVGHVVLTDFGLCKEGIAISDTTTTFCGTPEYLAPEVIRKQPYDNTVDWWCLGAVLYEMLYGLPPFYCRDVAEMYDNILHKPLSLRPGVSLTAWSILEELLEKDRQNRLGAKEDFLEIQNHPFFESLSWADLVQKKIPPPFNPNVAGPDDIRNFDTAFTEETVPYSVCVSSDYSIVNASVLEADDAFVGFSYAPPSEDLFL
In short: as §1

TYRO3 = biological target: T3, TYRO3 (Homo sapiens, UniProt Q06418)
T3 construct: purchased Nanosyn (enzymatic panel); SGC in-house recombinant human kinases (DSF panel); Invitrogen (ALK1-6)
T3 sequence (Q06418 41-890): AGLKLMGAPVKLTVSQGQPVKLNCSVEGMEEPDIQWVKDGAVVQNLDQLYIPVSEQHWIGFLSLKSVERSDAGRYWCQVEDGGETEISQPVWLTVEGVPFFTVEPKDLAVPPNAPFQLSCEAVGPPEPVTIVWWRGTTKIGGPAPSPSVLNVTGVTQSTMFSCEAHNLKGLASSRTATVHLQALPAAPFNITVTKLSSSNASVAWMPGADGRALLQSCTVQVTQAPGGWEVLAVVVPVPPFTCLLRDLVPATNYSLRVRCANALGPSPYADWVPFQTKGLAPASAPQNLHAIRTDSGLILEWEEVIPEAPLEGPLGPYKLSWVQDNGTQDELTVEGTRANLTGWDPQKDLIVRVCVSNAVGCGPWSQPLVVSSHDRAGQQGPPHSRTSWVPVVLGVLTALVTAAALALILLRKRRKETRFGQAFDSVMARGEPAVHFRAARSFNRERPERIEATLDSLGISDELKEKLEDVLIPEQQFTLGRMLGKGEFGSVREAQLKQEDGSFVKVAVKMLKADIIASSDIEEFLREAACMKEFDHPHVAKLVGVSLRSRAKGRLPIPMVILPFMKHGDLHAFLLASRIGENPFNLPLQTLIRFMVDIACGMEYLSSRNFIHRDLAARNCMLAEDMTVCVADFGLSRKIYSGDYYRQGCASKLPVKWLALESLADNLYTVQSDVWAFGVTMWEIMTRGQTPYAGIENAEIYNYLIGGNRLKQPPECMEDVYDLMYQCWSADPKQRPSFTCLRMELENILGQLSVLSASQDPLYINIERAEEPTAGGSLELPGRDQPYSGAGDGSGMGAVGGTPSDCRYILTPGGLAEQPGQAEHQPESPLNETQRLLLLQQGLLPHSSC
In short: as §1

LTK = biological target: T4, LTK (Homo sapiens, UniProt P29376)
T4 construct: purchased Nanosyn (enzymatic panel); SGC in-house recombinant human kinases (DSF panel); Invitrogen (ALK1-6)
T4 sequence (P29376 17-864): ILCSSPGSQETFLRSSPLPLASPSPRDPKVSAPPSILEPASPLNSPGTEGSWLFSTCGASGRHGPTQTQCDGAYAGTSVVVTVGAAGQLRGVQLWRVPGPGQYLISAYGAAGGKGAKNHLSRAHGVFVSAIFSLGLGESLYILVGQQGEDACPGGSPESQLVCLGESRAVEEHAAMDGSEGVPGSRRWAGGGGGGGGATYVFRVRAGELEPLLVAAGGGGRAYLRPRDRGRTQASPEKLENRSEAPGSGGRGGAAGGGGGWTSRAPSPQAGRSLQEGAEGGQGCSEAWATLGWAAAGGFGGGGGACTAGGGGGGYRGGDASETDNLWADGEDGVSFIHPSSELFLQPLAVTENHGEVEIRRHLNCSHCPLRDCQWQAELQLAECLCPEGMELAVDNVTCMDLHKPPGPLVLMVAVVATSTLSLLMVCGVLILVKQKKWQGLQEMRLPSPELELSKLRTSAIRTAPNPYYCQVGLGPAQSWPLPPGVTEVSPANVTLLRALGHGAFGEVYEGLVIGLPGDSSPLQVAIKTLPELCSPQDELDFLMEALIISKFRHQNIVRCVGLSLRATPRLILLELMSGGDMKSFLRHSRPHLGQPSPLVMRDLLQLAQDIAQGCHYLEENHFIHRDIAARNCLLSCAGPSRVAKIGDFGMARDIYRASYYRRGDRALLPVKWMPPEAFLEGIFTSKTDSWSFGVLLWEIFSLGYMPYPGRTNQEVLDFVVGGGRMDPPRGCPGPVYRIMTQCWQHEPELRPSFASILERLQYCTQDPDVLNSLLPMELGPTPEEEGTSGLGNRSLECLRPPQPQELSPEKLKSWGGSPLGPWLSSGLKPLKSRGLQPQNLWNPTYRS
In short: as §1

MAPK3 = biological target: T5, MAPK3 (Homo sapiens, UniProt P27361)
T5 construct: purchased Nanosyn (enzymatic panel); SGC in-house recombinant human kinases (DSF panel); Invitrogen (ALK1-6)
T5 sequence (P27361 whole entry): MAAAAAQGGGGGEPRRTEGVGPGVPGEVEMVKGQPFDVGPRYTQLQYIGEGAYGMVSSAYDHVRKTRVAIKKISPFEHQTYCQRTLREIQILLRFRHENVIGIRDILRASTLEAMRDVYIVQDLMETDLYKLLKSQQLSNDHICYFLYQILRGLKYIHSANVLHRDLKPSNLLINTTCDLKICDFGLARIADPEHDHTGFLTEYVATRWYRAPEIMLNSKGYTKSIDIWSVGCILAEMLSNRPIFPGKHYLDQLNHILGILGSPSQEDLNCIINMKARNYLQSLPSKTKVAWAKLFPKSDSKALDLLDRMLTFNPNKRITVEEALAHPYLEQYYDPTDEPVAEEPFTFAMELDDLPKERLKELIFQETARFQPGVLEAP
In short: as §1

NEK7 = biological target: T6, NEK7 (Homo sapiens, UniProt Q8TDX7)
T6 construct: purchased Nanosyn (enzymatic panel); SGC in-house recombinant human kinases (DSF panel); Invitrogen (ALK1-6)
T6 sequence (Q8TDX7 whole entry): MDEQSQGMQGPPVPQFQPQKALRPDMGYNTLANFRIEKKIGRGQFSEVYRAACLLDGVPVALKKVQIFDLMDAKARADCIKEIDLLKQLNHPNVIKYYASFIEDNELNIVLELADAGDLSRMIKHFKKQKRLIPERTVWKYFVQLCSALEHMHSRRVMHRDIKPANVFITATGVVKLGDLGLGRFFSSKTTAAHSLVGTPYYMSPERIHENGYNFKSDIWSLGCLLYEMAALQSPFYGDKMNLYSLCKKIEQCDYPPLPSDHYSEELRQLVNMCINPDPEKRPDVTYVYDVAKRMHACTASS
In short: as §1

TTK = biological target: T7, TTK (Homo sapiens, UniProt P33981)
T7 construct: purchased Nanosyn (enzymatic panel); SGC in-house recombinant human kinases (DSF panel); Invitrogen (ALK1-6)
T7 sequence (P33981 1-857): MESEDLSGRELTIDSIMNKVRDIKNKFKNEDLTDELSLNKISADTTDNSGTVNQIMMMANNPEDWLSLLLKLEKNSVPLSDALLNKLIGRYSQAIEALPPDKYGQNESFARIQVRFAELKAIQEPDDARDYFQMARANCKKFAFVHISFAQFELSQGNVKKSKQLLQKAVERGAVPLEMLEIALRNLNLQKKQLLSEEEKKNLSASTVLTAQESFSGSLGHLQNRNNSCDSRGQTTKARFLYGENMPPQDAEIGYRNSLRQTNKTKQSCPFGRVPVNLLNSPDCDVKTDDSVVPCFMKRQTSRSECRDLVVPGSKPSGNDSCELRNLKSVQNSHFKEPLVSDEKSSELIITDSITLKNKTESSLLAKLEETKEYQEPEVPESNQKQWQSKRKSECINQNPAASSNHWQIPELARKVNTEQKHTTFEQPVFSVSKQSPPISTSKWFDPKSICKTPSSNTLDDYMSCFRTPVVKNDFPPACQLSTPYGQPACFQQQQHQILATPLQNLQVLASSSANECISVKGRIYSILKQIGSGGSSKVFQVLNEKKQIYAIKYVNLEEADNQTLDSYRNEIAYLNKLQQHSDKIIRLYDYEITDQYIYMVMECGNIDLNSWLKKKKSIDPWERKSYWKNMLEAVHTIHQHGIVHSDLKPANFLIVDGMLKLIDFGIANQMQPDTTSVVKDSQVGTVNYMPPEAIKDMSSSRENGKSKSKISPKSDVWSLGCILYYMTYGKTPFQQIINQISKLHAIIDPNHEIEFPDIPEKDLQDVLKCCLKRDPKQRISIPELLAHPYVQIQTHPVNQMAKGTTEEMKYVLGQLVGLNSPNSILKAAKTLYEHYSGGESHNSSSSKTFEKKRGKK
In short: as §1

P70S6KB1 = biological target: T8, P70S6KB1 (Homo sapiens, UniProt P23443)
T8 construct: purchased Nanosyn (enzymatic panel); SGC in-house recombinant human kinases (DSF panel); Invitrogen (ALK1-6)
T8 sequence (P23443 whole entry): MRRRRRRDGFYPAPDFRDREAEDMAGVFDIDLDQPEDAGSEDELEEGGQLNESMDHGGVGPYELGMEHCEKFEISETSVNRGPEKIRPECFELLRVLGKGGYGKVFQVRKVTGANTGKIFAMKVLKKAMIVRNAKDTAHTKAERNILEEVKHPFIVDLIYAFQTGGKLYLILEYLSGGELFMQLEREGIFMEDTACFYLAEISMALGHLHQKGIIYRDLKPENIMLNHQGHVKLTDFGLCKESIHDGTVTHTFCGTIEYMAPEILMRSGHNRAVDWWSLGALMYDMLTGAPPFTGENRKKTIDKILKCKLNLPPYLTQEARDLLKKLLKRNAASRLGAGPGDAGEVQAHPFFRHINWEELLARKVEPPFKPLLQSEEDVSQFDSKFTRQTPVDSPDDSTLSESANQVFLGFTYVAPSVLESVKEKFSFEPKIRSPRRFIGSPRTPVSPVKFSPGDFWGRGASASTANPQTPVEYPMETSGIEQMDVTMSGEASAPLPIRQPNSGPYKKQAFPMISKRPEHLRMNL
In short: as §1

FLT4 = biological target: T9, FLT4 (Homo sapiens, UniProt P35916)
T9 construct: purchased Nanosyn (enzymatic panel); SGC in-house recombinant human kinases (DSF panel); Invitrogen (ALK1-6)
T9 sequence (P35916 25-1363): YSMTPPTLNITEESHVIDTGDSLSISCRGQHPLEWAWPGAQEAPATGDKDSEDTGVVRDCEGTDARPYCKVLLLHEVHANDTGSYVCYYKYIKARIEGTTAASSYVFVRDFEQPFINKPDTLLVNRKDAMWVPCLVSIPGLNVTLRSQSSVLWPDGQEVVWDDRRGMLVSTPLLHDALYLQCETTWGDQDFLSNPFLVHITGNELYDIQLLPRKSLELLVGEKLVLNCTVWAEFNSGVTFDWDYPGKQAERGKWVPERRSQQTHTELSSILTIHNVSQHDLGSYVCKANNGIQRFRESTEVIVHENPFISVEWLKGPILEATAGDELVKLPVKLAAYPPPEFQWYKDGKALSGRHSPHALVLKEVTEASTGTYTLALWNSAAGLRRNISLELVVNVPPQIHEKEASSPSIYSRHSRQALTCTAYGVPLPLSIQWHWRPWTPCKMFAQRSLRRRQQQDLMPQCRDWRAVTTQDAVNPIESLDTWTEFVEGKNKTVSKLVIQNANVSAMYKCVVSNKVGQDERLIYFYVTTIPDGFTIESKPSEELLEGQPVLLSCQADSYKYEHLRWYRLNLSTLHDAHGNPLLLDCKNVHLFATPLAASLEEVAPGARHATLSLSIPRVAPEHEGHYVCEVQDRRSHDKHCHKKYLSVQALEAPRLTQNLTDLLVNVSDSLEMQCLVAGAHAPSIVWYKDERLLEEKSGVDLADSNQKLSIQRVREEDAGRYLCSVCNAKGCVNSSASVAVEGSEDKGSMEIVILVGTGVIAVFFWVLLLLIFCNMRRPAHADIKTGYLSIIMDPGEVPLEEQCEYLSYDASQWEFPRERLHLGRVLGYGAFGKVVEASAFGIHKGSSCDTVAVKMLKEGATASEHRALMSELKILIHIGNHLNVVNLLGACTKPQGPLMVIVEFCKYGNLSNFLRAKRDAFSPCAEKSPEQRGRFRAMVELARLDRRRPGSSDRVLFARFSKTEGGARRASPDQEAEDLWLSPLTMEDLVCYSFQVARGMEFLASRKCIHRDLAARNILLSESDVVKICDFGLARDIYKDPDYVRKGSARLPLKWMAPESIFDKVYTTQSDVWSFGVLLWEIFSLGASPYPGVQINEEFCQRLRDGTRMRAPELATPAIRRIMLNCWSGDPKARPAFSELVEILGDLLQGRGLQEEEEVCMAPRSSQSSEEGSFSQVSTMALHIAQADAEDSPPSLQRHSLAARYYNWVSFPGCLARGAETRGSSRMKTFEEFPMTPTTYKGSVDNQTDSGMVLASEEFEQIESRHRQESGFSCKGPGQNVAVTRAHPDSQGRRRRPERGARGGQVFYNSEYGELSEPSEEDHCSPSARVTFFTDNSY
In short: as §1

PIM1 = biological target: T10, PIM1 (Homo sapiens, UniProt P11309)
T10 construct: purchased Nanosyn (enzymatic panel); SGC in-house recombinant human kinases (DSF panel); Invitrogen (ALK1-6)
T10 sequence (P11309 whole entry): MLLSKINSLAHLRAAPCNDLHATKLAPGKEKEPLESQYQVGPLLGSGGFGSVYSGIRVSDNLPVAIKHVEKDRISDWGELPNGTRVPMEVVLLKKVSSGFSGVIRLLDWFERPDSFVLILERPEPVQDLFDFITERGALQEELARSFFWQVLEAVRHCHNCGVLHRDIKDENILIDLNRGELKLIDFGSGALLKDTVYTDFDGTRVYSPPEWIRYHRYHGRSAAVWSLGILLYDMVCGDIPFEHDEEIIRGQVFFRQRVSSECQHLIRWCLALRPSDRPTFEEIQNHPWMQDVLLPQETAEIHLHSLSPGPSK
In short: as §1

| Compound | inhibition at 0.1 µM (HIPK1) [%] | inhibition at 1 µM (HIPK1) [%] | inhibition at 0.1 µM (SGK3) [%] | inhibition at 1 µM (SGK3) [%] | inhibition at 0.1 µM (TYRO3) [%] | inhibition at 1 µM (TYRO3) [%] | inhibition at 0.1 µM (LTK) [%] | inhibition at 1 µM (LTK) [%] | inhibition at 0.1 µM (MAPK3) [%] | inhibition at 1 µM (MAPK3) [%] | inhibition at 0.1 µM (NEK7) [%] | inhibition at 1 µM (NEK7) [%] | inhibition at 0.1 µM (TTK) [%] | inhibition at 1 µM (TTK) [%] | inhibition at 0.1 µM (P70S6KB1) [%] | inhibition at 1 µM (P70S6KB1) [%] | inhibition at 0.1 µM (FLT4) [%] | inhibition at 1 µM (FLT4) [%] | inhibition at 0.1 µM (PIM1) [%] | inhibition at 1 µM (PIM1) [%] |
| --- | --- | --- | --- | --- | --- | --- | --- | --- | --- | --- | --- | --- | --- | --- | --- | --- | --- | --- | --- | --- |
| COc1cc(-c2cc(-c3cccc(O)c3)cnc2N)cc(OC)c1OC [K02288, 3-[6-amino-5-(3,4,5-trimethoxy-phenyl)-pyridin-3-yl]-phenol] | 1.7 | 3.1 | -2 | -1 | 1.8 | 19 | 3.6 | 31 | 0 | -1 | 0.2 | -3 | -4 | -1 | -2 | -1 | 0.6 | 1.4 | 0.2 | 1.5 |
| c1ccc2c(-c3cnn4cc(-c5ccc(N6CCNCC6)cc5)cnc34)ccnc2c1 [LDN-193189] | 0.6 | 4.4 | 1.6 | 2.3 | 13 | 58 | 3.6 | 4 | 1.9 | -2 | 7.9 | 1.7 | 4.5 | 7.6 | 1 | 0.6 | 3.4 | 13 | -1 | -1 |
